Experiments:
Format in all cases: physicochemical
[1] = Hygroscopicity study of crystal forms (dynamic vapour sorption, 25° C.); settings: for Crystal form after hygroscopicity test: two cycles
Source text: According to the “9103 Guideline for Hygroscopicity for Pharmaceuticals” in Part IV of the 2015 edition of the Chinese Pharmacopoeia, descriptions of hygroscopic characteristics and definitions of hygroscopic weight gain are as follows; • Deliquescent: Absorbs sufficient moisture to form a liquid; • Extremely hygroscopic: Hygroscopic weight gain is no less than 15%; • Hygroscopic: Hygroscopic weight gain is less than 15% but no less than 2%; • Slightly hygroscopic: Hygroscopic weight gain is less than 2% but no less than 0.2%; • Non-hygroscopic or nearly non-hygroscopic: Hygroscopic weight gain is less than 0.2%.
Compound of Formula (I) (Oct. 15, 2021, Nanjing) 03881 Using the Surface Measurement Systems advantage 2, at a temperature of 25° C., and starting at a humidity of 50%, the humidity range was examined from […] to 95%, with increments of 10%. The criterion for evaluation was that the mass change dM/dT at each gradient was less than 0.002%, TMAX was 360 min, and the process was cycled twice.

[2] = Long-term/accelerated stability of crystal forms (25° C. 60% RH and 40° C. 75% RH); settings: for physical and chemical stability, long-term accelerated conditions: 25° C. 60% RH and 40° C. 75% RH, six months
Procedure: The crystal forms D, E, Q, and U of the compound of formula (I) were respectively placed under conditions of 25° C. with 60% RH and 40° C. with 75% RH to evaluate their stability.

[3] = Influencing factor stability of crystal forms (light, high temperature, high humidity, 30 days); settings: for change in purity under 60° C. and light: 60° C. and light (4500 Lux); for change in purity under 60° C. and light / physicochemical stability under high humidity: open; for physicochemical stability under high humidity: high humidity conditions of 75% and 92.5%; for crystal form after influencing factor experiments: light, high temperature, high humidity
Procedure: Each crystal form was spread out in an open exposure setup, and the stability of the samples under conditions of light (4500 Lux), high temperature (40° C., 60° C.), and high humidity (RH 75 RH 92.5%) was examined separately. The sampling inspection period was 30 days.

[4] = 92.5% RH, 9 days, open exposure
[5] = 92.5% RH, 15 days, open exposure
[6] = 92.5% RH, 30 days, open exposure
[7] = light 4500 Lux, 9 days, open exposure
[8] = light 4500 Lux, 15 days, open exposure
[9] = light 4500 Lux, 30 days, open exposure

## N#Cc1ccc(N2CCC(Sc3ccc(COc4cccc5c4CN([C@H]4CCC(=O)NC4=O)C5=O)cn3)CC2)c(F)c1 [Crystal form D, (S)-4-(4-((5-(((2-(2,6-dioxopiperidin-3-yl)-1-oxoisoindolin-4-yl)oxy)methyl)pyridin-2-yl)thio)piperidin-1-yl)-3-fluorobenzonitrile]
[1]
  Hygroscopic weight change 0.0% RH-95.0% RH: 2.24%
  Hygroscopic weight change 20% RH-80% RH: 1.26%
  Hygroscopicity class (20% RH-80% RH): (slightly hygroscopic)
  Crystal form after hygroscopicity test: Untransformed
[2]
  physical and chemical stability, long-term accelerated conditions: good physical and chemical stability
  Purity % Onset: 97.9%
[2]; 25° C., 60% RH
  Purity % 1 month: 97.8%
  Purity % 2 months: 97.8%
  Purity % 3 months: 97.8%
[2]; 40° C., 75% RH
  Purity % 1 month: 97.8%
  Purity % 2 months: 97.8%
  Purity % 3 months: 97.7%
  Purity % 6 months: 97.6%
[3]; 40° C., 9 days, open exposure
  Color and character: White solid
[3]; 40° C., 9 days, open exposure, listed as Free crystal form D
  Purity %: 97.3%
[3]; 40° C., 15 days, open exposure
  Color and character: White solid
[3]; 40° C., 15 days, open exposure, listed as Free crystal form D
  Purity %: 96.7%
[3]; 40° C., 30 days, open exposure
  Color and character: White solid
[3]; 40° C., 30 days, open exposure, listed as Free crystal form D
  Purity %: 95.8%
[3]; 30 days
  change in purity under 60° C. and light: slight decrease in purity
  physicochemical stability under high humidity: good physicochemical stability
  crystal form after influencing factor experiments: remain unchanged
[3]; 60° C., 9 days, open exposure
  Color and character: White solid
[3]; 60° C., 9 days, open exposure, listed as Free crystal form D
  Purity %: 96.6%
[3]; 60° C., 15 days, open exposure
  Color and character: White solid
[3]; 60° C., 15 days, open exposure, listed as Free crystal form D
  Purity %: 95.8%
[3]; 60° C., 30 days, open exposure
  Color and character: White solid
[3]; 60° C., 30 days, open exposure, listed as Free crystal form D
  Purity %: 93.9%
[3]; 75% RH, 9 days, open exposure
  Color and character: White solid
[3]; 75% RH, 9 days, open exposure, listed as Free crystal form D
  Purity %: 97.8%
[3]; 75% RH, 15 days, open exposure
  Color and character: White solid
[3]; 75% RH, 15 days, open exposure, listed as Free crystal form D
  Purity %: 97.7%
[3]; 75% RH, 30 days, open exposure
  Color and character: White solid
[3]; 75% RH, 30 days, open exposure, listed as Free crystal form D
  Purity %: 97.9%
[3]; [4]
  Color and character: White solid
[3]; 92.5% RH, 9 days, open exposure, listed as Free crystal form D
  Purity %: 97.8%
[3]; [5]
  Color and character: White solid
[3]; 92.5% RH, 15 days, open exposure, listed as Free crystal form D
  Purity %: 97.9%
[3]; [6]
  Color and character: White solid
[3]; 92.5% RH, 30 days, open exposure, listed as Free crystal form D
  Purity %: 97.8%
[3]; Onset, 0 days
  Color and character: White solid
[3]; Onset, 0 days, listed as Free crystal form D
  Purity %: 97.9%
[3]; [7]
  Color and character: White solid
[3]; light 4500 Lux, 9 days, open exposure, listed as Free crystal form D
  Purity %: 97.3%
[3]; [8]
  Color and character: White solid
[3]; light 4500 Lux, 15 days, open exposure, listed as Free crystal form D
  Purity %: 96.8%
[3]; [9]
  Color and character: White solid
[3]; light 4500 Lux, 30 days, open exposure, listed as Free crystal form D
  Purity %: 95.4%

## N#Cc1ccc(N2CCC(Sc3ccc(COc4cccc5c4CN([C@H]4CCC(=O)NC4=O)C5=O)cn3)CC2)c(F)c1 [Crystal form E, (S)-4-(4-((5-(((2-(2,6-dioxopiperidin-3-yl)-1-oxoisoindolin-4-yl)oxy)methyl)pyridin-2-yl)thio)piperidin-1-yl)-3-fluorobenzonitrile]
[1]
  Hygroscopic weight change 0.0% RH-95.0% RH: 2.24%
  Hygroscopic weight change 20% RH-80% RH: 0.84%
  Hygroscopicity class (20% RH-80% RH): (slightly hygroscopic)
  Crystal form after hygroscopicity test: Untransformed
[2]
  physical and chemical stability, long-term accelerated conditions: good physical and chemical stability
  Purity % Onset: 97.9%
[2]; 25° C., 60% RH
  Purity % 1 month: 97.9%
  Purity % 2 months: 97.8%
  Purity % 3 months: 97.8%
[2]; 40° C., 75% RH
  Purity % 1 month: 97.8%
  Purity % 2 months: 97.8%
  Purity % 3 months: 97.8%
  Purity % 6 months: 97.4%
[3]; 40° C., 9 days, open exposure
  Color and character: White solid
[3]; 40° C., 9 days, open exposure, listed as Free crystal form E
  Purity %: 97.4%
[3]; 40° C., 15 days, open exposure
  Color and character: White solid
[3]; 40° C., 15 days, open exposure, listed as Free crystal form E
  Purity %: 97.0%
[3]; 40° C., 30 days, open exposure
  Color and character: White solid
[3]; 40° C., 30 days, open exposure, listed as Free crystal form E
  Purity %: 96.4%
[3]; 30 days
  change in purity under 60° C. and light: slight decrease in purity
  physicochemical stability under high humidity: good physicochemical stability
  crystal form after influencing factor experiments: remain unchanged
[3]; 60° C., 9 days, open exposure
  Color and character: White solid
[3]; 60° C., 9 days, open exposure, listed as Free crystal form E
  Purity %: 96.7%
[3]; 60° C., 15 days, open exposure
  Color and character: White solid
[3]; 60° C., 15 days, open exposure, listed as Free crystal form E
  Purity %: 95.9%
[3]; 60° C., 30 days, open exposure
  Color and character: White solid
[3]; 60° C., 30 days, open exposure, listed as Free crystal form E
  Purity %: 94.6%
[3]; 75% RH, 9 days, open exposure
  Color and character: White solid
[3]; 75% RH, 9 days, open exposure, listed as Free crystal form E
  Purity %: 97.9%
[3]; 75% RH, 15 days, open exposure
  Color and character: White solid
[3]; 75% RH, 15 days, open exposure, listed as Free crystal form E
  Purity %: 97.9%
[3]; 75% RH, 30 days, open exposure
  Color and character: White solid
[3]; 75% RH, 30 days, open exposure, listed as Free crystal form E
  Purity %: 97.8%
[3]; [4]
  Color and character: White solid
[3]; 92.5% RH, 9 days, open exposure, listed as Free crystal form E
  Purity %: 97.9%
[3]; [5]
  Color and character: White solid
[3]; 92.5% RH, 15 days, open exposure, listed as Free crystal form E
  Purity %: 97.8%
[3]; [6]
  Color and character: White solid
[3]; 92.5% RH, 30 days, open exposure, listed as Free crystal form E
  Purity %: 97.8%
[3]; Onset, 0 days
  Color and character: White solid
[3]; Onset, 0 days, listed as Free crystal form E
  Purity %: 97.9%
[3]; [7]
  Color and character: White solid
[3]; light 4500 Lux, 9 days, open exposure, listed as Free crystal form E
  Purity %: 97.7%
[3]; [8]
  Color and character: White solid
[3]; light 4500 Lux, 15 days, open exposure, listed as Free crystal form E
  Purity %: 97.4%
[3]; [9]
  Color and character: White solid
[3]; light 4500 Lux, 30 days, open exposure, listed as Free crystal form E
  Purity %: 94.9%
